Among the data in EP4578856A1, “HETEROCYCLIC COMPOUND” (Ubience Inc., priority 2022, dated 2024) are inhibition values, retold here.

Structures are written as SMILES. A value given as a limit tells only on which side of the number the result lay.

The test concerns the target ROCK2 protein (Homo sapiens, UniProt O75116). Description: Degradation inducing activity of ROCK2 protein in HUVEC cells, Western blotting (Simple Western JESS). Type of test: cell-based. More on the design: endogenous in cells; host or cells: HUVEC (ATCC CRL-1730). Conditions: HUVEC, 24 h; for inhibition at 1 µM: degradation rate at 1 µM; for inhibition at 10 µM: degradation rate at 10 µM. As to the method:
In vitro degradation inducing activity of ROCK2 protein of compounds of Examples was evaluated by Western Blotting (WB).
By a test compound, 10 mM DMSO solution was prepared, which was used as a 10 µM test compound solution. Further, the solution was diluted 10-fold with DMSO to prepare a 1 mM solution, which was used as a 1 µM test compound solution.
HUVEC cells (ATCC: CRL-1730, Lot: 70041472) were cultured in F-12K medium supplemented with 10% FBS, 0.1 mg/mL heparin, […] Endothelial Cell Growth Supplement (ECGS, Corning), and 1% Penicillin/Streptomycin. The HUVEC cells seeded in a 24 well plate at 50,000 cells/well/1 mL were cultured for 24 hours, and then 1 µL of DMSO or a test compound solution was added thereto and treatment was performed for 24 hours. Cells were harvested and lysed for 20 minutes on ice using lysis buffer (Cell Signaling Technology, Cat#9803) supplemented with protease inhibitor cocktail (Sigma, Cat#P8340; Roche, Cat#P11873580001), and phosphatase inhibitor cocktail (Sigma, Cat#P5726, P0044). The lysate was sonicated (15 seconds, amplitude 30%, 1 cycle) and then centrifuged at 12500 rpm for 15 minutes at 4°C. The protein concentration was determined by BCA assay kit (Thermo Fisher Scientific, Cat#23225).
The western blotting was performed using Simple Western JESS (protein simple). A cell lysis sample (protein amount; about 1.06 µg) was loaded on a plate of Simple Western JESS, and the expression level of ROCK2 protein was detected using a 12-230 kDa Wes Separation Module (Protein simple, Cat#SM-WO04), an Anti-Rabbit Detection Module for Wes (Protein simple, Cat#DM-001), and a Total Protein Detection Module for Wes (Protein simple, Cat#DM-TP01). As the primary antibody, a material obtained by diluting ROCK2 (D1B1) Rabbit mAb (Cell Signaling Technology, Cat#9029) at 1:10 was used, and as the secondary antibody, a material obtained by diluting HRP-labeled anti-rabbit IgG antibody (Cell Signaling Technology, Cat#7074S) at 1:100 was used. The expression level of the target protein was standardized using the total protein amount loaded as a reference. The standardized expression level data of the control (DMSO) was taken as 100%, and the degradation rate (%) was calculated from the average standardized expression level data of the test compound. All analysis steps, such as data detection and analysis, are fully automated.
With respect to the ROCK2 protein degradation rate of the test compound, the protein degradation rates (%) at the evaluation concentrations were set to A ≥ 75%, 75% > B ≥ 50%, 50% > C ≥ 25%, and D < 25%, and are shown in Table 7.
Background: A western blot detects proteins with antibodies after separation by electrophoresis.

Chain of ROCK2 protein (O75116 whole entry): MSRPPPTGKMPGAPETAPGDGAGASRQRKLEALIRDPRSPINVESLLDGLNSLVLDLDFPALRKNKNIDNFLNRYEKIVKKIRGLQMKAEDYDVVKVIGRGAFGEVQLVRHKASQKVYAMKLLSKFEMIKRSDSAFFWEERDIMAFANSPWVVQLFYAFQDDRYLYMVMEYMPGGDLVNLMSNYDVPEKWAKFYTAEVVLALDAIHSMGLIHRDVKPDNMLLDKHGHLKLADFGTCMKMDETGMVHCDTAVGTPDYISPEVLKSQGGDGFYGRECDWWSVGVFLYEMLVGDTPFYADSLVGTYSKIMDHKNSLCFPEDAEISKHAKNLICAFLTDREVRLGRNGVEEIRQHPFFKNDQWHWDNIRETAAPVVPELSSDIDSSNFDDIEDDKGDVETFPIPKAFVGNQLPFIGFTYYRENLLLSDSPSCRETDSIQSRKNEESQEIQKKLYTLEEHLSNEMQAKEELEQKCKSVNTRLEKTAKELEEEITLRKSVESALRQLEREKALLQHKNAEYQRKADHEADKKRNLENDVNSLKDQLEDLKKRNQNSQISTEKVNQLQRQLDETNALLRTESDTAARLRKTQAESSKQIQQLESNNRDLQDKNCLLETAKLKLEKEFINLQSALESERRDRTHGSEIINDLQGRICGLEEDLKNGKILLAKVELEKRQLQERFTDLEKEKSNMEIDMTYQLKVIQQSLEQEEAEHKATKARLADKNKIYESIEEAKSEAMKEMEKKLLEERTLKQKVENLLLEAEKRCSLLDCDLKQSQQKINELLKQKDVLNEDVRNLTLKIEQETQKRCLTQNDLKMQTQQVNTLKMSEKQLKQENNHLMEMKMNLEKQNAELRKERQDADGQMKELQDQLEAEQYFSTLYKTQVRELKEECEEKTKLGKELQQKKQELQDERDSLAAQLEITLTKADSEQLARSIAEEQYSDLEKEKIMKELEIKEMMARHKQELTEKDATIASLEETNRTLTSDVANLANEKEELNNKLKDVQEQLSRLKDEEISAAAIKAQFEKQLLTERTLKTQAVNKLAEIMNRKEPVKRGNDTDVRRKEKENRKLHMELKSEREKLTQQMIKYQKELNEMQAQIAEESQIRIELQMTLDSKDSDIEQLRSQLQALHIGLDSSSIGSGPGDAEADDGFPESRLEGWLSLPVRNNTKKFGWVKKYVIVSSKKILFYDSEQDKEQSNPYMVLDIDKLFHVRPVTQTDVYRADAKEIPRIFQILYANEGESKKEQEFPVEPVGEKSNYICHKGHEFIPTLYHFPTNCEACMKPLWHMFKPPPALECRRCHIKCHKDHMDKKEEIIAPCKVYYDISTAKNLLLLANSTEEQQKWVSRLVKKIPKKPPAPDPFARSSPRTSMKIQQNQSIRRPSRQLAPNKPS

With `COC[C@H]1CN[C@H](C)CN1CC(=O)N1CC(C)(C)c2nc(CN(C)CCOCCOCCOCCOCCN[C@H](Cc3cccc(F)c3)C(=O)Nc3ccc(-c4ccncc4)cc3)c(Cc3ccc(F)cc3)cc21` [Example 32, (R)-18-(3-Fluorobenzyl)-1-(6-(4-fluorobenzyl)-1-(2-((2R,5R)-2-(methoxymethyl)-5-methylpiperazin-1-yl)acetyl)-3,3-dimethyl-2,3-dihydro-1H-pyrrolo[3,2-b]pyridin-5-yl)-2-methyl-N-(4-(pyridin-4-yl)phenyl)-5,8,11,14-tetraoxa-2,17-diazanonadecan-19-amide], the inhibition at 1 µM was under 25% and the inhibition at 10 µM was at least 75%.
`COC[C@H]1CN[C@H](C)CN1CC(=O)N1CC(C)(C)c2nc(CN(C)CCOCCOCCOCCOCCOCCN[C@H](Cc3cccc(F)c3)C(=O)Nc3ccc(-c4ccncc4)cc3)c(Cc3ccc(F)cc3)cc21` [Example 33, (R)-21-(3-Fluorobenzyl)-1-(6-(4-fluorobenzyl)-1-(2-((2R,5R)-2-(methoxymethyl)-5-methylpiperazin-1-yl)acetyl)-3,3-dimethyl-2,3-dihydro-1H-pyrrolo[3,2-b]pyridin-5-yl)-2-methyl-N-(4-(pyridin-4-yl)phenyl)-5,8,11,14,17-pentaoxa-2,20-diazadocosan-22-amide]: the inhibition at 1 µM was under 25% and the inhibition at 10 µM is at least 75%.
Compound `COC[C@H]1CN[C@H](C)CN1CC(=O)N1CC(C)(C)c2nc(CN(C)CCOCCOCCOCCOCCOCCOCCN[C@H](Cc3cccc(F)c3)C(=O)Nc3ccc(-c4ccncc4)cc3)c(Cc3ccc(F)cc3)cc21` [Example 34, (R)-24-(3-Fluorobenzyl)-1-(6-(4-fluorobenzyl)-1-(2-((2R,5R)-2-(methoxymethyl)-5-methylpiperazin-1-yl)acetyl)-3,3-dimethyl-2,3-dihydro-1H-pyrrolo[3,2-b]pyridin-5-yl)-2-methyl-N-(4-(pyridin-4-yl)phenyl)-5,8,11,14,17,20-hexaoxa-2,23-diazapentacosan-25-amide] displayed an inhibition at 1 µM of under 25% and an inhibition at 10 µM of at least 75%.
The like results for `COC[C@H]1CN[C@H](C)CN1CC(=O)N1CC(C)(C)c2nc(CN(C)CCOCCOCCOCCOCCOCCOCCOCCN[C@H](Cc3cccc(F)c3)C(=O)Nc3ccc(-c4ccncc4)cc3)c(Cc3ccc(F)cc3)cc21` [Example 35, (R)-27-(3-Fluorobenzyl)-1-(6-(4-fluorobenzyl)-1-(2-((2R,5R)-2-(methoxymethyl)-5-methylpiperazin-1-yl)acetyl)-3,3-dimethyl-2,3-dihydro-1H-pyrrolo[3,2-b]pyridin-5-yl)-2-methyl-N-(4-(pyridin-4-yl)phenyl)-5,8,11,14,17,20,23-heptaoxa-2,26-diazaoctacosan-28-amide] were, in that order, 50 to 75% and at least 75%.
`COC[C@H]1CN[C@H](C)CN1CC(=O)N1CC(C)(C)c2nc(CN(C)CCOCCOCCNC[C@@H](C(=O)Nc3ccc4cnccc4c3)c3ccccc3)c(Cc3ccc(F)cc3)cc21` [Example 37, (S)-1-(6-(4-Fluorobenzyl)-1-(2-((2R,5R)-2-(methoxymethyl)-5-methylpiperazin-1-yl)acetyl)-3,3-dimethyl-2,3-dihydro-1H-pyrrolo[3,2-b]pyridin-5-yl)-N-(isoquinolin-6-yl)-2-methyl-13-phenyl-5,8-dioxa-2,11-diazatetradecan-14-amide] had an inhibition at 1 µM of under 25% and an inhibition at 10 µM of at least 75%.
Regarding `COC[C@H]1CN[C@H](C)CN1CC(=O)N1CC(C)(C)c2nc(CN(C)CCOCCOCCOCCNC[C@@H](C(=O)Nc3ccc4cnccc4c3)c3ccccc3)c(Cc3ccc(F)cc3)cc21` [Example 38, (S)-1-(6-(4-Fluorobenzyl)-1-(2-((2R,5R)-2-(methoxymethyl)-5-methylpiperazin-1-yl)acetyl)-3,3-dimethyl-2,3-dihydro-1H-pyrrolo[3,2-b]pyridin-5-yl)-N-(isoquinolin-6-yl)-2-methyl-16-phenyl-5,8,11-trioxa-2,14-diazaheptadecan-17-amide], the inhibition at 1 µM is under 25% and the inhibition at 10 µM was at least 75%.
Consider `COC[C@H]1CN[C@H](C)CN1CC(=O)N1CC(C)(C)c2nc(CN(C)CCOCCOCCOCCOCCNC[C@@H](C(=O)Nc3ccc4cnccc4c3)c3ccccc3)c(Cc3ccc(F)cc3)cc21` [Example 39, (S)-1-(6-(4-Fluorobenzyl)-1-(2-((2R,5R)-2-(methoxymethyl)-5-methylpiperazin-1-yl)acetyl)-3,3-dimethyl-2,3-dihydro-1H-pyrrolo[3,2-b]pyridin-5-yl)-N-(isoquinolin-6-yl)-2-methyl-19-phenyl-5,8,11,14-tetraoxa-2,17-diazaicosan-20-amide], for which the inhibition at 1 µM is 25 to 50% and the inhibition at 10 µM is at least 75%.
For `COC[C@H]1CN[C@H](C)CN1CC(=O)N1CC(C)(C)c2nc(CN(C)CCOCCOCCOCCOCCOCCNC[C@@H](C(=O)Nc3ccc4cnccc4c3)c3ccccc3)c(Cc3ccc(F)cc3)cc21` [Example 40, (S)-1-(6-(4-Fluorobenzyl)-1-(2-((2R,5R)-2-(methoxymethyl)-5-methylpiperazin-1-yl)acetyl)-3,3-dimethyl-2,3-dihydro-1H-pyrrolo[3,2-b]pyridin-5-yl)-N-(isoquinolin-6-yl)-2-methyl-22-phenyl-5,8,11,14,17-pentaoxa-2,20-diazatricosan-23-amide], in that order: 25 to 50% and 50 to 75%.
Take `COC[C@H]1CN[C@H](C)CN1CC(=O)N1CC(C)(C)c2nc(CN(C)CCOCCOCCOCCOCCOCCOCCNC[C@@H](C(=O)Nc3ccc4cnccc4c3)c3ccccc3)c(Cc3ccc(F)cc3)cc21` [Example 41, (S)-1-(6-(4-Fluorobenzyl)-1-(2-((2R,5R)-2-(methoxymethyl)-5-methylpiperazin-1-yl)acetyl)-3,3-dimethyl-2,3-dihydro-1H-pyrrolo[3,2-b]pyridin-5-yl)-N-(isoquinolin-6-yl)-2-methyl-25-phenyl-5,8,11,14,17,20-hexaoxa-2,23-diazahexacosan-26-amide]: the inhibition at 1 µM is 50 to 75% and the inhibition at 10 µM is at least 75%.
On to `COC[C@H]1CN[C@H](C)CN1CC(=O)N1CC(C)(C)c2nc(CN(C)CCOCCOCCOCCOCCOCCOCCOCCNC[C@@H](C(=O)Nc3ccc4cnccc4c3)c3ccccc3)c(Cc3ccc(F)cc3)cc21` [Example 42, (S)-1-(6-(4-Fluorobenzyl)-1-(2-((2R,5R)-2-(methoxymethyl)-5-methylpiperazin-1-yl)acetyl)-3,3-dimethyl-2,3-dihydro-1H-pyrrolo[3,2-b]pyridin-5-yl)-N-(isoquinolin-6-yl)-2-methyl-28-phenyl-5,8,11,14,17,20,23-heptaoxa-2,26-diazanonacosan-29-amide], for which the inhibition at 1 µM is 50 to 75% and the inhibition at 10 µM was at least 75%.
`COC[C@H]1CN[C@H](C)CN1CC(=O)N1CC(C)(C)c2ncc(Cc3cccc(OCCOCCN[C@H](C)c4ccc(C(=O)Nc5ccncc5)cc4)c3)cc21` [Example 43, 4-((R)-1-((2-(2-(3-((1-(2-((2R,5R)-2-(Methoxymethyl)-5-methylpiperazin-1-yl)acetyl)-3,3-dimethyl-2,3-dihydro-1H-pyrrolo[3,2-b]pyridin-6-yl)methyl)phenoxy)ethoxy)ethyl)amino)ethyl)-N-(pyridin-4-yl)benzamide] gave an inhibition at 1 µM of 25 to 50% and an inhibition at 10 µM of at least 75%.

One may read the inhibition as the relative decrease from the control value, in per cent.
